# Test system: Hippocampusschnitt
# Experiment: Hippocampal slice: epileptic discharges in magnesium-free medium (stimulation of Schaffer collaterals, extracellular recording at CA1 pyramidal cells)
# Type: cell-based
# Details: addition of 100 mmol, Abb. 1c
# Text: Als Testsystem für den Nachweis der zytoprotektiven Eigenschaften der Benzomorphanderivate dient der Hippocampusschnitt. Über Mikroelektroden werden die Schäfferkollaterale des sich in einer Perfusionskammer befindenden Hippocampusschnittes stimuliert und die auftretenden Summenpotentiale extrazellulär an den Pyramidenzellen der CAI-Region abgeleitet [H.L. Haas, B. Schaerer und M. Vosmansky, J. Neuroscience Meth. 1 (1979) 323].
# Eine typische Stimulation in einem magnesiumhaltigem Medium ist in Abb. 1a dargestellt. - Abb. 1b zeigt multiple epileptische Entladungen in einem magnesiumfreien Medium. Diese Entladungen werden - wie Abb. 1c belegt - beispielsweise durch Zugabe von […] (-)-(1R,5R,9R)-N-(2-Furylmethyl)-5,9-dimethyl-2′- hydroxy-6,7-benzomorphan gehemmt.
smiles,measurement,value
"C[C@H]1[C@H]2Cc3ccc(O)cc3[C@]1(C)CCN2Cc1ccco1 [(-)-(1R,5R,9R)-N-(2-Furylmethyl)-5,9-dimethyl-2′-hydroxy-6,7-benzomorphan]",multiple epileptische Entladungen,gehemmt
